According to patent publication US20220257774A1, “AROMATIC AMINE AR AHD BET TARGETING PROTEIN DEGRADATION CHIMERA COMPOUND AND USE” (HINOVA PHARMACEUTICALS INC., priority 2019, published 2022):
Where two headings read alike, the source gives them in different places.

Test system: LNCaP/AR cells
Test: Inhibition of the proliferation of LNCap/AR cells (CCK-8)
Assay type: cell-based
Details: LNCaP/AR cells, 6 days culture, CCK-8, read-out: LNCap/AR IC50
Description: 1. Biological Assay of the Inhibition on the Proliferation of LNCap/AR Cells
(1) Experimental materials and instruments: LNCaP/AR cell line and 22RV1 cell line (provided by Sichuan Kangcheng Biotechnology Co., Ltd.) Fetal bovine serum FBS (Gibco, Cat. No. 10099-141) 0.01M PBS (Biosharp, Cat. No. 162262) RIPM1640 medium (Hyclone, Cat. No. 308090.01) Penicillin-Streptomycin (Hyclone, Cat. No. SV30010) Cell counting kit-8 (Signalway Antibody, Cat. No. CP002) DMSO (Sigma, Cat. No. D5879) Centrifuge Tube, 15 ml (Excell Bio, Cat. No. CS015-0001) Cell Culture Dish, (Excell Bio, Cat. No. CS016-0128) 96-well cell culture plate (Corning, Cat. No. 3599) Microplate reader (Thermo Multiskan MK3 type)
(2) Experimental Methods:
a. Preparation of Buffer Cell culture medium: RIPM1640 medium, 10% FBS, 1% Pen Strep: PBS buffer: PBS powder was dissolved in 2 L of ultrapure water and sterilized. b. Experimental Procedures 1) LNCaP/AR cells were subcultured in cell culture media, and then the cells in good growth condition were seeded in a 96-well plate at 80 μL/well (1000 cells/well), and cultured overnight in a 37° C., 5% CO2 cell incubator. 2) The drug was prepared into a 10 mM stock solution with dimethyl sulfoxide (DMSO). Prior to use, the stock solution was diluted in a ratio of […] with DMSO, and then diluted at a 3-fold gradient to obtain 9 serial concentrations. Then, each concentration of compound was further diluted in a ratio of 1:200 with the culture medium (to ensure that the DMSO concentration in the culture system was 0.1%), and two wells were set for each concentration. 20 μL of the diluted compound solution was added to the well of the cell culture (with a final concentration of 10 μM, 3.3 μM, 1.1 μM . . . ), and then the plate was gently tapped to thoroughly mix. In addition, the experiment included 3 negative control wells only containing cells and 3 blank control wells only containing culture medium (6 wells were each added with DMSO diluted in a ratio of 1:200 with 20 μL of culture medium). c. Result Detection: 1) After culturing for 6 days, 10 μL of CCK-8 was added to each well, and the plate was further incubated for 1 h in a 37° C., 5% CO2 cell incubator. 2) The absorbance (OD value) was measured at 450 nm with a multifunctional microplate reader. 3) The data was analyzed by the Dose-response-inhibition equation in the software GraphPad Prism5, and the IC50 value was obtained. 2. Biological assay of the inhibition on the proliferation of other drug-resistant prostate cancer cells

SMILES | IC50 (144 h) [nM] | IC50 [nM]
CC(=O)O[C@@H]1C[C@@H](C(=O)N[C@@H](C)c2ccc(-c3scnc3C)cc2)N(C(=O)[C@@H](NC(=O)COCCCCN(c2ccc(-n3ccnc3)cc2)c2cc(-c3c(C)noc3C)ccc2C)C(C)(C)C)C1 [Compound 86, (3R,5S)-1-((S)-2-(2-(4-((4-(1H-imidazol-1-yl)phenyl)(5-(3,5-dimethylisoxazol-4-yl)-2-methylphenyl)amino)butoxy)acetamido)-3,3-dimethylbutyryl)-5-((S)-1-(4-(4-methylthiazol-5-yl)phenyl)ethyl)carbamoyl)pyrrolidine-3-yl acetate] | 101 to 500 | –
CC(=O)O[C@@H]1C[C@@H](C(=O)N[C@@H](C)c2ccc(-c3scnc3C)cc2)N(C(=O)[C@@H](NC(=O)CN2CCC(CCCN(c3ccc(-n4ccnc4)c(Br)c3)c3cc(-c4c(C)noc4C)ccc3C)CC2)C(C)(C)C)C1 [Compound 142, (3R,5S)-1-((S)-2-(2-(4-(3-((3-Bromo-4-(1H-imidazol-1-yl)phenyl)(5-(3,5-4-yl)-2-methylphenyl)amino)propyl)piperidin-1-yl)acetamido)-3,3-dimethylbutyryl)-5-(((S)-1-(4-(4-methylthiazol-5-yl)phenyl)ethyl)carbamoyl)pyrrolidinyl-3-acetate] | 101 to 500 | –
CC(=O)O[C@@H]1C[C@@H](C(=O)N[C@@H](C)c2ccc(-c3scnc3C)cc2)N(C(=O)[C@@H](NC(=O)COCCCCCCCN(c2ccc(-n3ccnc3)cc2)c2cc(-c3c(C)noc3C)ccc2C)C(C)(C)C)C1 [Compound 7] | > 2000 | –
Cc1ncc(-c2c(C)noc2C)cc1N(CCCCCOCC(=O)N[C@H](C(=O)N1C[C@H](O)C[C@H]1C(=O)N[C@@H](C)c1ccc(-c2scnc2C)cc1)C(C)(C)C)c1ccc(-n2ccnc2)c(Br)c1 [Compound 49, (2S,4R)-1-((S)-2-(2-((5-((3-bromo-4-(1H-imidazol-1-yl)phenyl)(5-(3,5-dimethylisoxazol-4-yl)-2-methylpyridin-3-yl)amino)pentyl)oxy)acetamido)-3,3-dimethylbutyryl)-4-hydroxy-N—((S)-1-(4-(4-methylthiazol-5-yl)phenyl)ethyl)pyrrolidine-2-formamide] | 501 to 2000 | –
CC(=O)O[C@@H]1C[C@@H](C(=O)N[C@@H](C)c2ccc(-c3scnc3C)cc2)N(C(=O)[C@@H](NC(=O)COC2CN(CCN(c3ccc(-n4ccnc4)c(Br)c3)c3cc(-c4c(C)noc4C)ccc3C)C2)C(C)(C)C)C1 [Compound 101, (3R,5S)-1-((S)-2-(2-((1-(2-((3-Bromo-4-(1H-imidazol-1-yl)phenyl)(5-(3,5-dimethylisozazol-4-yl)-2-methylphenyl)amino)ethyl)azetidin-3-yl)oxy)acetylamino)-3,3-dimethylbutyryl)-5-(((S)-1-(4-(4-methylthiazol-5-yl)phenyl)ethyl)carbamoyl)pyrrolidine-3-yl acetate] | > 2000 | –
CC(=O)O[C@@H]1C[C@@H](C(=O)N[C@@H](C)c2ccc(-c3scnc3C)cc2)N(C(=O)[C@@H](NC(=O)COCCCCCN(c2ccc(-n3ccnc3)c(C(F)(F)F)c2)c2cc(-c3c(C)noc3C)ccc2C)C(C)(C)C)C1 [Compound 22, (3R,5S)-1-((S)-2-(2-((5-((4-(1H-imidazol-1-yl)-3-(trifluoromethyl)phenyl)(5-(3,5-dimethylisoxazol-4-yl)2-methylphenyl)amino)pentyl)oxy)acetamido)-3,3-dimethylbutyryl)-5-((S)-1-(4-methylthiazol-5-yl)phenyl)ethyl)carbamoyl)pyrrolidine-3-yl acetate] | 501 to 2000 | –
CCn1nc(C)c(-c2ccc(C)c(N(CCCCCOCC(=O)N[C@H](C(=O)N3C[C@H](OC(C)=O)C[C@H]3C(=O)N[C@@H](C)c3ccc(-c4scnc4C)cc3)C(C)(C)C)c3ccc(C#N)c(Cl)c3)c2)c1C [Compound 82, (3R,5S)-1-((S)-2-(2-((5-((3-chloro-4-cyanophenyl)(5-(1-ethyl-3,5-dimethyl-1H-pyrazol-4-yl)-2-methylphenyl)amino)pentyl)oxy)acetamido)-3,3-dimethylbutyryl)-5-((S)-1-(4-methylthiazol-5-yl)phenyl)ethyl)carbamoyl)pyrrolidine-3-yl acetate] | – | 101 to 500
CC(=O)O[C@@H]1C[C@@H](C(=O)N[C@@H](C)c2ccc(-c3scnc3C)cc2)N(C(=O)[C@@H](NC(=O)COCCCCCN(c2ccc(-n3ccnc3)cc2)c2cc3c(C)noc3cc2C)C(C)(C)C)C1 [Compound 17, (3R,5S)-1-((S)-2-(2-((5-((4-(1H-imidazol-1-yl)phenyl)(3,6-dimethylbenzo[d]isoxazol-5-yl)amino)pentyl)oxy)acetamido)-3,3-dimethylbutyryl)-5-((S)-1-(4-(4-methylthiazol-5-yl)phenyl)ethyl)carbamoyl)pyrrolidine-3-yl acetate] | > 2000 | –
CC(=O)O[C@@H]1C[C@@H](C(=O)N[C@@H](C)c2ccc(-c3scnc3C)cc2)N(C(=O)[C@@H](NC(=O)COCCCCCN(c2ccc(-n3ccnc3)cc2)c2cc3onc(C)c3cc2C)C(C)(C)C)C1 [Compound 18, (3R,5S)-1-((S)-2-(2-((5-((4-(1H-imidazol-1-yl)phenyl)(3,5-dimethylbenzo[d]isoxazol-6-yl)amino)pentyl)oxy)acetamido)-3,3-dimethylbutyryl)-5-((S)-1-(4-(4-methylthiazol-5-yl)phenyl)ethyl)carbamoyl)pyrrolidine-3-yl acetate] | > 2000 | –

Second part, led by results:

IC50 (144 h) [nM] | SMILES | IC50 [nM]
> 2000 | Cc1ccc(-c2c(C)noc2C)cc1N(CCCCCOCC(=O)N[C@H](C(=O)N1C[C@H](O)C[C@H]1C(=O)N[C@@H](C)c1ccc(-c2scnc2C)cc1)C(C)(C)C)c1ccc(-n2ccnc2)c(F)c1 [Compound 14, (2S,4R)-1-((S)-2-(2-((5-((3-fluoro-4-(1H-imidazol-1-yl)phenyl)(5-(3,5-dimethylisoxazol-4-yl)-2-methylphenyl)amino)n-pentyl)oxy)acetylamino)-3,3-dimethylbutyryl)-4-hydroxy-N—((S)-1-(4-(4-methylthiazol-5-yl)phenyl)ethyl)pyrrolidinyl-2-formamide] | –
501 to 2000 | Cc1ccc(-c2c(C)noc2C)cc1N(CCCCCCCOCC(=O)N[C@H](C(=O)N1C[C@H](O)C[C@H]1C(=O)N[C@@H](C)c1ccc(-c2scnc2C)cc1)C(C)(C)C)c1ccc(-n2ccnc2)cc1 [Compound 8] | –
< 100 | Cc1ccc(-c2c(C)noc2C)cc1N(CCCCCOCC(=O)N[C@H](C(=O)N1C[C@H](O)C[C@H]1C(=O)N[C@@H](C)c1ccc(-c2scnc2C)cc1)C(C)(C)C)c1ccc(-n2ccnn2)cc1 [Compound 89, (2S,4R)-1-((S)-2-(2-((5-((4-(1H-1,2,3-triazol-1-yl)phenyl)(5-(3,5-dimethylisoxazol-4-yl)-2-methylphenyl)amino)pentyl)oxy)acetylamino)-3,3-dimethylbutyryl)-4-hydroxy-N—((S)-1-(4-(4-methylthiazol-5-yl)phenyl)ethyl)-pyrrolidinyl-2-formamide] | –
101 to 500 | Cc1ccc(-c2c(C)noc2C)cc1N(CCCCCOCC(=O)Nc1cccc2c1CN(C1CCC(=O)NC1=O)C2=O)c1ccc(C2(C#N)CC2)cc1 (centres unmarked) [Compound 144] | –
101 to 500 | Cc1ccc(-c2c(C)noc2C)cc1N(CCCCCOCC(=O)N[C@H](C(=O)N1C[C@H](O)C[C@H]1C(=O)N[C@@H](C)c1ccc(-c2scnc2C)cc1)C(C)(C)C)c1ccc(-n2cncn2)cc1 [Compound 91, (2S,4R)-1-((S)-2-(2-((5-((4-(1H-1,2,4-triazol-1-yl)phenyl)(5-(3,5-dimethylisoxazol-4-yl)-2-methylphenyl)amino)pentyl)oxy)acetylamino)-3,3-dimethylbutyryl)-4-hydroxy-N—((S)-1-(4-(4-methylthiazol-5-yl)phenyl)ethyl)-pyrrolidinyl-2-formamide] | –
